Reference: patent US20150216933A1, “HEMATOPOIETIC STEM CELL GROWTH FACTOR” (DUKE UNIVERSITY, priority 2008, published 2015)

B1: Fit-3 ligand: cytokine, 50 ng/mL alone in culture (protein, UniProt P49771 27-235, looked up)
Fms-related tyrosine kinase 3 …: TQDCSFQHSPISSDFAVKIRELSDYLLQDYPVTVASNLQDEELCGGLWRLVLAQRWMERLKTVAGSKMQGLLERVNTEIHFVTKCAFQPPPSCLRFVQTNISRLLQETSEQLVALKPWITRQNFSRCLELQCQPDSSTLPPPWSPRPLEATAPTAPQPPLLLLLLLPVGLLLLAAAWCLHWQRTRRRTPRPGEQVPPVPSPQDLLLVEH

Legend:
PI 3-kinase = format: cell-based, mouse
From the text: In order to determine a potential mechanism through which PTN mediates HSC expansion, an examination was made as to whether PTN altered pathways that are known to be affected by RPTPβ/ζ (Meng et al, Proc Natl Acad Sci USA 97: 2603-8 (2000), Stoica et al, J Biol Chem 276:16772-9 (2001), Landgraf et al, J Biol Chem 283:25036-45 (2008), Deuel et al, Arch Biochem Biophys 397:162-71 (2002)). Canonical PTN signaling occurs via binding and inactivation of RPTPβ/ζ (Meng et al, Proc Natl Acad Sci USA 97: 2603-8 (2000)), which can facilitate the tyrosine phosphorylation of several intracellular substrates, including Akt and β-catenin (Souttou et al, J Biol Chem 272:19588-93 (1997), Gu et al, FEBS Lett 581:382-8 (2007)). […] BM 34^− KSL cells were treated with TSF with and without 100 ng/mL PTN in the presence and absence of 10 μM wortmannin, a PI 3-kinase inhibitor (Souttou et al, J Biol Chem 272:19588-93 (1997)).

[1] = tested on: Bone marrow lineage negative (lin-) progenitor cells; assay: 7 day culture of bone marrow lin- progenitor cells with individual cytokines or TSF with and without PTN; format: cell-based; settings: 7 days, individual cytokine
Experimental: Bone marrow lineage negative (lin-) progenitor cells were placed in culture for 7 days with 20 ng/mL thromobopoietin (TPO), 120 ng/mL stem cell factor (SCF) or 50 ng/mL Flt-3 ligand or the combination of all 3 cytokines (TSF) with and without 100 ng/mL pleiotrophin (PTN).

| Molecule | reduction in BM KSL cell expansion compared to TSF+PTN alone (PI 3-kinase) | reduction in total cell expansion compared to TSF+PTN alone (PI 3-kinase) | support of BM progenitor cells in culture [1] |
| --- | --- | --- | --- |
| COC[C@H]1OC(=O)c2coc3c2[C@@]1(C)C1=C(C3=O)[C@@H]2CCC(=O)[C@@]2(C)C[C@H]1OC(C)=O [wortmannin] | 8.1 fold | 3.4 fold |  |
| SCF: stem cell factor, 120 ng/mL, with or without PTN |  |  | modest expansion |
| thromobopoietin: cytokine, 20 ng/mL alone in culture |  |  | Neither thromobopoietin alone nor Fit-3 ligand alone supported viable BM progenitor cells |
| B1 |  |  | Neither thromobopoietin alone nor Fit-3 ligand alone supported viable BM progenitor cells |
